Measurements: patent US20240239788A1, “SMALL MOLECULE INHIBITORS OF KRAS G12D MUTANT” (Merck Sharp & Dohme LLC, priority 2021, published 2024)
Where a name gives a salt, the structure may show the parent alone. Read-outs that look alike come from different tables or passages of the source.

Tests used:
[1] = system: AsPC-1 cells containing homozygous KRAS-G12D activating mutation; assay: Cellular phospho-ERK assay with 10% FBS (Examples 107a-256); assay type: cell-based
Description: 5% CO2 for 2 hours. […] Assay plates were read on a EnVision Multimode Plate Reader (PerkinElmer) and the ratio of p-Erk vs total Erk in each well was used as the final readout.

[2] = biological target: KRAS protein containing G12D mutation (Homo sapiens (Human), UniProt P01116, G12D); assay: SOS-catalyzed nucleotide exchange assay (GNE), TR-FRET; assay type: biochemical; details: biotinylated KRAS G12D, SOS and GTP, 60-minute incubation
Sequence of KRAS protein containing G12D mutation (P01116 other isoform, or with tags, fused parts or gaps G12D (already in the parent)): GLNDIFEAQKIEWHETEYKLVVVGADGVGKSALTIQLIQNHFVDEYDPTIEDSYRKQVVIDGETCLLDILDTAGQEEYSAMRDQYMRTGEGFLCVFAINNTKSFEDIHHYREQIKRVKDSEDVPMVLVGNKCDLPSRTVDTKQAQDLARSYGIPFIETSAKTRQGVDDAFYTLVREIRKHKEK
Description: Compounds are added to this complex and then after a 60-minute incubation time the mixture is treated with SOS and unlabeled GTP. Small molecule inhibitors stabilize the Bodipy-GDP complex whereas the untreated protein rapidly exchanges Bodipy-GDP for unlabeled GTP resulting in reduced TR-FRET signal.
This solution is referred to as biotinylated KRAS G12D stock solution.

[3] = read-out: IC50 (nM) pERK (cell with FBS 10%), AsPC-1 cells, 10% fetal bovine serum, 2 hours, ratio of p-Erk vs total Erk
[4] = Homo sapiens, ASPC1, 2 h, read-out: IC50 (nM) pERK (cell with FBS 10%), AsPC-1 cells, 10% fetal bovine serum, 2 hours, ratio of p-Erk vs total Erk

| SMILES | IC50 [1, 3] [nM] | IC50 [2] [nM] | IC50 [1, 4] [nM] | IC50 ([1]; read-out: IC50 (nM) pERK (cell with FBS 10%), AsPC-1 cells, 10% fetal bovine serum, 2 hours, ratio of p-Erk vs total Erk, HCl) [nM] | IC50 ([1]; Homo sapiens, ASPC1, 2 h, read-out: IC50 (nM) pERK (cell with FBS 10%)) [nM] |
| --- | --- | --- | --- | --- | --- |
| Cc1cc2[nH]nc(C)c2c(-c2c(F)cc3c(N4CC5CCC(C4)N5)nc(OC[C@@]45CCCN4C[C@H](F)C5)nc3c2F)c1C(F)(F)F (single isomer, unassigned) [Ex. 128a] | 43.4 | 1.28 |  |  |  |
| Cc1cc2[nH]nc(C)c2c(-c2c(F)cc3c(N4CC5CCC(C4)N5)nc(OC[C@@]45CCCN4C[C@H](F)C5)nc3c2F)c1C(F)(F)F (single isomer, unassigned) [Ex. 128b] | 2850 | 232 |  |  |  |
| C[C@]12CC[C@H](CN(c3nc(OC[C@@]45CCCN4C[C@H](F)C5)nc4c(F)c(-c5cc(O)cc(Cl)c5Cl)c(F)cc34)C1)N2 (single isomer, unassigned) [Ex. 129a, HCl] |  | 17.7 | 2810 |  |  |
| C[C@]12CC[C@H](CN(c3nc(OC[C@@]45CCCN4C[C@H](F)C5)nc4c(F)c(-c5cc(O)cc(Cl)c5Cl)c(F)cc34)C1)N2 (single isomer, unassigned) [Ex. 129b, HCl] |  | 14.1 |  | 3010 |  |
| Nc1nc2c(-c3c(Cl)cc4c(N5CC6CCC(C5)N6)nc(OC[C@@]56CCCN5C[C@H](F)C6)nc4c3F)c(F)cc(F)c2o1 (single isomer, unassigned) [Ex. 133a] | 3470 | 61.4 |  |  |  |
| Nc1nc2c(-c3c(Cl)cc4c(N5CC6CCC(C5)N6)nc(OC[C@@]56CCCN5C[C@H](F)C6)nc4c3F)c(F)cc(F)c2o1 (single isomer, unassigned) [Ex. 133b] | 410 | 1.16 |  |  |  |
| C#Cc1c(F)ccc2cccc(-c3c(F)cc4c(N5CC6CCC(C5)N6)nc(OC[C@@]56CCCN5[C@H](CO)CC6)nc4c3F)c12 (single isomer, unassigned) [Ex. 142] |  | 1.57 | 384 |  |  |
| C#Cc1cccc2cc(O)c(Cl)c(-c3c(F)cc4c(N5CC6CC[C@@](C)(C5)N6)nc(OC[C@@]56CCCN5C[C@H](F)C6)nc4c3F)c12 (single isomer, unassigned) [Ex. 143a] | 53.5 | 0.86 |  |  |  |
| C#Cc1cccc2cc(O)c(Cl)c(-c3c(F)cc4c(N5CC6CC[C@@](C)(C5)N6)nc(OC[C@@]56CCCN5C[C@H](F)C6)nc4c3F)c12 (single isomer, unassigned) [Ex. 143b] | 2500 | 74.5 |  |  |  |
| N#Cc1c(N)sc2c(F)ccc(-c3c(F)cc4c(N5C[C@H]6CC[C@@H](C5)N6)nc(OC[C@@]56CCCN5C[C@H](F)C6)nc4c3F)c12 (single isomer, unassigned) [Ex. 144a] | 83.9 | 2.03 |  |  |  |
| N#Cc1c(N)sc2c(F)ccc(-c3c(F)cc4c(N5C[C@H]6CC[C@@H](C5)N6)nc(OC[C@@]56CCCN5C[C@H](F)C6)nc4c3F)c12 (single isomer, unassigned) [Ex. 144b] | 392 | 20 |  |  |  |
| Nc1cc(F)c(C(F)(F)F)c(-c2c(F)cc3c(N4CC5CCC(C4)N5)nc(OC[C@@]45CCCN4C[C@H](F)C5)nc3c2F)c1F (single isomer, unassigned) [Ex. 145a] | 19400 | 1270 |  |  |  |
| Nc1cc(F)c(C(F)(F)F)c(-c2c(F)cc3c(N4CC5CCC(C4)N5)nc(OC[C@@]45CCCN4C[C@H](F)C5)nc3c2F)c1F (single isomer, unassigned) [Ex. 145b] | 358 | 14.1 |  |  |  |
| Cc1cc(N)c(F)c(-c2c(F)cc3c(N4CC5CCC(C4)N5)nc(OC[C@@]45CCCN4C[C@H](F)C5)nc3c2F)c1C(F)(F)F (single isomer, unassigned) [Ex. 146a] |  | 1.56 | 185 |  |  |
| C#Cc1cccc2scc(-c3c(F)cc4c(N5CC6CC[C@@](C)(C5)N6)nc(OCC5(CN6CCOCC6)CC5)nc4c3F)c12 (single isomer, unassigned) [Ex. 147a] |  | 400 | 16600 |  |  |
| C#Cc1cccc2scc(-c3c(F)cc4c(N5CC6CC[C@@](C)(C5)N6)nc(OCC5(CN6CCOCC6)CC5)nc4c3F)c12 (single isomer, unassigned) [Ex. 147b] | 10200 | 429 |  |  |  |
| C#Cc1cccc2cc(N)nc(-c3c(F)cc4c(N5CC6CCC(C5)N6)nc(OC[C@@]56CCCN5C[C@H](F)C6)nc4c3F)c12 (single isomer, unassigned) [Ex. 148a] | 235 | 13.6 |  |  |  |
| C#Cc1cccc2cc(N)nc(-c3c(F)cc4c(N5CC6CCC(C5)N6)nc(OC[C@@]56CCCN5C[C@H](F)C6)nc4c3F)c12 (single isomer, unassigned) [Ex. 148b] | 8550 | 751 |  |  |  |
| C#Cc1c(F)ccc2cccc(-c3c(F)cc4c(N5C[C@H]6CC[C@@](C)(C5)N6)nc(OC[C@@]56CCCN5[C@H](CF)CC6)nc4c3F)c12 (single isomer, unassigned) [Ex. 149] |  | 103 | 4490 |  |  |

| SMILES | IC50 [1, 3] [nM] | IC50 [2] [nM] | IC50 [1, 4] [nM] | IC50 ([1]; read-out: IC50 (nM) pERK (cell with FBS 10%), AsPC-1 cells, 10% fetal bovine serum, 2 hours, ratio of p-Erk vs total Erk, HCl) [nM] | IC50 ([1]; Homo sapiens, ASPC1, 2 h, read-out: IC50 (nM) pERK (cell with FBS 10%)) [nM] |
| --- | --- | --- | --- | --- | --- |
| Cc1nc(N)c(F)c(-c2c(F)cc3c(N4CC5CCC(C4)N5)nc(OC[C@@]45CCCN4C[C@H](F)C5)nc3c2F)c1C(F)(F)F (single isomer, unassigned) [Ex. 151a] | 3950 | 1930 |  |  |  |
| Cc1nc(N)c(F)c(-c2c(F)cc3c(N4CC5CCC(C4)N5)nc(OC[C@@]45CCCN4C[C@H](F)C5)nc3c2F)c1C(F)(F)F (single isomer, unassigned) [Ex. 151b] | 278 | 21.6 |  |  |  |
| Nc1cc(Cl)c(C(F)(F)F)c(-c2c(Cl)cc3c(N4CC5CCC(C4)N5)nc(OC[C@@]45CCCN4C[C@H](F)C5)nc3c2F)n1 (single isomer, unassigned) [Ex. 154a] |  | 1.1 | 52.1 |  |  |
| Nc1cc(-c2c(Cl)cc3c(N4CC5CCC(C4)N5)nc(OC[C@@]45CCCN4C[C@H](F)C5)nc3c2F)c(C(F)(F)F)c(Cl)n1 (single isomer, unassigned) [Ex. 155b] |  | 2.33 | 144 |  |  |
| Oc1cc(-c2c(F)cc3c(N4CC5CCC(C4)N5)nc(OC[C@@]45CCCN4C[C@H](F)C5)nc3c2F)c2c(Cl)cccc2c1 (single isomer, unassigned) [Ex. 160a] | 882 | 3.3 |  |  |  |
| Oc1cc(-c2c(F)cc3c(N4CC5CCC(C4)N5)nc(OC[C@@]45CCCN4C[C@H](F)C5)nc3c2F)c2c(Cl)cccc2c1 (single isomer, unassigned) [Ex. 160b] | 12500 | 367 |  |  |  |
| CCC(=O)Oc1cc(-c2c(F)cc3c(N4CC5CC[C@@](C)(C4)N5)nc(OC[C@@]45CCCN4C[C@H](F)C5)nc3c2F)c2c(Cl)cccc2c1 (single isomer, unassigned) [Ex. 162a] | 659 | 23.1 |  |  |  |
| CCC(=O)Oc1cc(-c2c(F)cc3c(N4CC5CC[C@@](C)(C4)N5)nc(OC[C@@]45CCCN4C[C@H](F)C5)nc3c2F)c2c(Cl)cccc2c1 (single isomer, unassigned) [Ex. 162b] | 2390 | 495 |  |  |  |
| C[C@]12CC[C@H](CN(c3nc(OC[C@@]45CCCN4C[C@H](F)C5)nc4c(F)c(-c5cc(N)c(F)c6cccc(Cl)c56)c(F)cc34)C1)N2 (single isomer, unassigned) [Ex. 163a] | 2270 | 47.5 |  |  |  |
| C[C@]12CC[C@H](CN(c3nc(OC[C@@]45CCCN4C[C@H](F)C5)nc4c(F)c(-c5cc(N)c(F)c6cccc(Cl)c56)c(F)cc34)C1)N2 (single isomer, unassigned) [Ex. 163b] | 35600 | 4740 |  |  |  |
| Cc1c(C(F)(F)F)c(-c2c(F)cc3c(N4CC5CCC(C4)N5)nc(OC[C@@]45CCCN4C[C@H](F)C5)nc3c2F)c2cn[nH]c2c1F (single isomer, unassigned) [Ex. 166a] | 30000 | 944 |  |  |  |
| Cc1c(C(F)(F)F)c(-c2c(F)cc3c(N4CC5CCC(C4)N5)nc(OC[C@@]45CCCN4C[C@H](F)C5)nc3c2F)c2cn[nH]c2c1F (single isomer, unassigned) [Ex. 166b] | 152 | 4.4 |  |  |  |
| C[C@]12CC[C@H](CN(c3nc(OC[C@@]45CCCN4C[C@H](F)C5)nc4c(F)c(-c5cncc6cccc(Cl)c56)c(F)cc34)C1)N2 (single isomer, unassigned) [Ex. 167] |  | 414 | 8440 |  |  |
| C#Cc1cccc2cc(O)cc(-c3c(F)cc4c(N5CC6CC[C@@](C)(C5)N6)nc(OCC5(CN6CC[C@@H](F)C6)CC5)nc4c3F)c12 (single isomer, unassigned) [Ex. 169] |  | 0.7 |  |  | 73 |
| C[C@]12CC[C@H](CN(c3nc(OC[C@@]45CCCN4C[C@H](F)C5)nc4c(F)c(-c5c(F)cc(F)c6oc(N)nc56)c(Cl)cc34)C1)N2 (single isomer, unassigned) [Ex. 170a] | 1380 | 4.72 |  |  |  |
| C[C@]12CC[C@H](CN(c3nc(OC[C@@]45CCCN4C[C@H](F)C5)nc4c(F)c(-c5c(F)cc(F)c6oc(N)nc56)c(Cl)cc34)C1)N2 (single isomer, unassigned) [Ex. 170b] | 14900 | 874 |  |  |  |
| C#Cc1cccc2cc(O)cc(-c3c(F)cc4c(N5C[C@H]6CC[C@@](C)(C5)N6)nc(OC)nc4c3F)c12 (single isomer, unassigned) [Ex. 171a, TFA] |  | 1260 | 7720 |  |  |
| C[C@]12CCC(CN(c3nc(OCC45CCCN4CC(C(F)F)C5)nc4c(F)c(-c5cc(O)cc6cccc(Cl)c56)c(F)cc34)C1)N2 (single isomer, unassigned) [Ex. 173-1a] | 1570 | 8.43 |  |  |  |
| C[C@]12CCC(CN(c3nc(OCC45CCCN4CC(C(F)F)C5)nc4c(F)c(-c5cc(O)cc6cccc(Cl)c56)c(F)cc34)C1)N2 (single isomer, unassigned) [Ex. 173-1b] | 2890 | 22.1 |  |  |  |
